Test results: patent publication US20240150293A1, “SPIROCYCLOHEXANE DERIVATIVES, PHARMACEUTICAL COMPOSITIONS CONTAINING THEM AND THEIR USES AS ANTI-APOPTOTIC INHIBITORS” (LES LABORATOIRES SERVIER, priority 2021, published 2024)
Read-outs that look alike come from different tables or passages of the source.

Assays:
[1] = test system: H929 multiple myeloma tumor line; assay: In vitro cytotoxicity, MTT assay (Example B, Method A); type: cell-based; conditions: H929 cells, 48 hours exposure, read-out: C50
Experimental: The cytotoxicity studies were carried out on the H929 multiple myeloma tumor line.
The cells are distributed onto microplates and exposed to the test compounds for 48 hours. The cell viability is then quantified by a colorimetric assay, the Microculture Tetrazolium Assay (Carmichael et al, Cancer Res. 1987, 47, 939-942).
The results are expressed in C50 which means concentration corresponding to […] of effect/inhibition.

[2] = biological target: Mcl-1 protein (UniProtKB Q07820) (Homo sapiens (Human), UniProt Q07820); assay: Inhibition of Mcl-1 by the fluorescence polarisation assay (Example A, Method A); type: binding; conditions: fluorescence polarization assay
How it was run: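 Protein (5 nM) and fluorescein-tagged peptide tracer (1 nM) incubated with 11-point compound series for 2 h at room temperature in HEPES/NaCl/Tween 20 buffer, pH 7.4, 5% DMSO. Displacement read as decrease in polarisation; IC50 fitted by 4-parameter logistic, converted to Ki (cKi or eKi).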

[3] = biological target: Cy5-labelled Mcl1 (amino acids 171-321) C286S protein (UniProtKB Q07820) (Homo sapiens (Human), UniProt Q07820, C286S); assay: Inhibition of Mcl-1 by the fluorescence quenching assay (Example A, Method B); type: binding
Excerpt: Fluorescence quenching assay measures the change fluorescence intensity of C-terminally Cy5-labelled Mcl1 (amino acids 171-321) C286S protein (UniProtKB® primary accession number Q07820) having an amino acid sequence:
which is linked at the C-terminus to the amino acid X which corresponds to a cysteine labelled on the sulfur with sulpho-Cyanine5 from Lumiprobe GmbH catalogue number 13380, upon binding of a C-terminally labelled peptide derived from PUMA (UniProtKB® primary accession number Q9BXH1) having an amino acid sequence:
which is linked at the C-terminus to the amino acid X′, where X′ is cysteine labelled on the sulfur with TQ5WS from AAT Bioquest catalogue number 2079.
The addition of a compound which binds competitively to the same site as the peptide will result in an increase in the fluorescence intensity of the protein due to displacement of the fluorescence quencher.
An 11-point serial dilution of each compound was prepared in DMSO, the final buffer conditions were 10 mM 4-(2-hydroxyethyl)-1-piperazineethanesulfonic acid [HEPES], 150 mM NaCl, 0.05% Tween 20, pH 7.4 and 5% DMSO. The final protein concentration in the assay was 1 nM with the peptide present at 10, 20 or 400 nM. The experiments were incubated for 2 hours at room temperature before fluorescence intensity was measured on a Biotek SynergyNeo plate reader (Excitation 620 nm, emission 680 nm). The dose response curves were plotted with XL-Fit software using a 4-Parameter Logistic Model (Sigmoidal DoseResponse Model) and the inhibitory concentrations that gave a 50% increase in fluorescence intensity was determined (IC50). The Ki values were determined from the IC50 values according to Cer et al, Nucleic Acids Res, 2009, 37 (WebServer issue): W441-W445. Inhibition constants (Ki) are determined from complete binding inhibition curves (cKi) or from estimated from incomplete binding inhibition curves (eKi) in most cases due to low activity.

Chain of Cy5-labelled Mcl1 (amino acids 171-321) C286S protein (Q07820 171-321 C286S): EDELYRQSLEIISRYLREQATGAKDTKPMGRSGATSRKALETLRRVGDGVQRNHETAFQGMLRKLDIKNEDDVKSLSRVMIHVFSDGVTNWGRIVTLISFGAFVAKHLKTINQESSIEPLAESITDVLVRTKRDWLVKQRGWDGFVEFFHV
Chain of Mcl-1 protein (Q07820 whole entry): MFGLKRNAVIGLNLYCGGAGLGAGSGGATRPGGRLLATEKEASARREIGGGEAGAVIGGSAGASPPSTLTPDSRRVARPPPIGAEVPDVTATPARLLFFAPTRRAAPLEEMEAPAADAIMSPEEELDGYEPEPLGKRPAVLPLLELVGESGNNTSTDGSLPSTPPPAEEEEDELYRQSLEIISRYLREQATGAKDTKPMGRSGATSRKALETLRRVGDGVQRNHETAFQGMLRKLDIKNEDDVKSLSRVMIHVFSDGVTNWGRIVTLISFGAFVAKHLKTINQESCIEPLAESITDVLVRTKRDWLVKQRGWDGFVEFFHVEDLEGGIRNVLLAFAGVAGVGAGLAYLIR

| SMILES | IC50 ([1]; Homo sapiens, NCI-H929, 48 h) | Ki [2] | Ki [3] | also measured |
| --- | --- | --- | --- | --- |
| O=C(O)[C@]1(Nc2cccc(Cl)c2)CC[C@@]2(CC1)c1ccccc1CC2CCCOc1ncncc1C1CC1 (mixture of isomers) [Example 465, (1r,4r)-4-(3-chloroanilino)-2′-{3-[(5-cyclopropylpyrimidin-4-yl)oxy]propyl}-2′,3′-dihydrospiro[cyclohexane-1,1′-indene]-4-carboxylic acid] | 9600 nM | 75.4 nM |  |  |
| CC(C)C(COc1ccnc2ccsc12)CC1Cc2ccccc2[C@]12CC[C@@](Nc1cccc(Cl)c1)(C(=O)O)CC2 (single isomer, unassigned) [Example 524, (1r,4r)-4-(3-chloroanilino)-2′-(3-methyl-2-{[(thieno[3,2-b]pyridin-7-yl)oxy]methyl}butyl)-2′,3′-dihydrospiro[cyclohexane-1,1′-indene]-4-carboxylic acid] |  |  |  | IC50 [1]: 30000 nM |
| CCC1Cc2ccccc2C12CCC(Nc1cccc(Br)c1)(C(=O)O)CC2 (stereo not shown) [Example 147, 4-(3-bromoanilino)-2′-ethyl-2′,3′-dihydrospiro[cyclohexane-1,1′-indene]-4-carboxylic acid] | 30000 nM | 816 nM |  |  |
| C[C@@H](COc1ccnc2[nH]ccc12)C[C@H]1Cc2ccccc2[C@]12CC[C@@](Nc1cccc(Cl)c1)(C(=O)O)CC2 [Example 626, (1r,2′S,4S)-4-(3-chloroanilino)-2′-{(2R)-2-methyl-3-[(1H-pyrrolo[2,3-b]pyridin-4-yl)oxy]propyl}-2′,3′-dihydrospiro[cyclohexane-1,1′-indene]-4-carboxylic acid] | 540 nM |  |  |  |
| COc1ccc2c(c1)[C@]1(CC2)CC[C@](Nc2cccc(Br)c2)(C(=O)O)CC1 [Example 61, (1r,4s)-4-(3-bromoanilino)-6′-methoxy-2′,3′-dihydrospiro[cyclohexane-1,1′-indene]-4-carboxylic acid] | 30000 nM | 358 nM |  |  |
| C[C@@H](COc1ncnc2c1C(C)(C)CC2)CC1Cc2ccccc2[C@]12CC[C@@](Nc1cccc(Cl)c1)(C(=O)O)CC2 (stereo partly drawn) [Example 595, (1r,4R)-4-(3-chloroanilino)-2′-{(2R)-3-[(5,5-dimethyl-6,7-dihydro-5H-cyclopenta[d]pyrimidin-4-yl)oxy]-2-methylpropyl}-2′,3′-dihydrospiro[cyclohexane-1,1′-indene]-4-carboxylic acid] | 1510 nM | 29.9 nM |  |  |
| O=C(O)[C@]1(Nc2cccc(Cl)c2)CC[C@@]2(CC1)c1ccccc1C[C@@H]2C[C@@H](COc1cccnc1)c1ccccc1 [Example 548, (1r,2′S,4S)-4-(3-chloroanilino)-2′-{(2R)-2-phenyl-3-[(pyridin-3-yl)oxy]propyl}-2′,3′-dihydrospiro[cyclohexane-1,1′-indene]-4-carboxylic acid] | 30000 nM | 995 nM |  |  |
| O=C(O)[C@]1(Nc2cccc(Cl)c2)CC[C@@]2(CC1)c1ccccc1C[C@@H]2C[C@H](COc1cccnc1)c1ccccc1 [Example 551, (1r,2′S,4S)-4-(3-chloroanilino)-2′-{(2S)-2-phenyl-3-[(pyridin-3-yl)oxy]propyl}-2′,3′-dihydrospiro[cyclohexane-1,1′-indene]-4-carboxylic acid] | 15900 nM | 607 nM |  |  |
| O=C(O)[C@]1(Nc2cccc(Cl)c2)CC[C@@]2(CC1)c1ccccc1C[C@H]2C[C@H](COc1ccncc1)c1ccccc1 [Example 554, (1r,2′R,4R)-4-(3-chloroanilino)-2′-{(2S)-2-phenyl-3-[(pyridin-4-yl)oxy]propyl}-2′,3′-dihydrospiro[cyclohexane-1,1′-indene]-4-carboxylic acid] | 30000 nM | 323 nM |  |  |
| CC[C@H](COc1ccnc2ccsc12)C[C@@H]1Cc2ccccc2[C@]12CC[C@@](Nc1cccc(Cl)c1)(C(=O)O)CC2 [Example 536, (1r,2′R,4R)-4-(3-chloroanilino)-2′-[(2S)-2-{[(thieno[3,2-b]pyridin-7-yl)oxy]methyl}butyl]-2′,3′-dihydrospiro[cyclohexane-1,1′-indene]-4-carboxylic acid] | 17200 nM | 2100 nM |  |  |
| C[C@@H](COc1cccc2ncsc12)C[C@H]1Cc2ccccc2[C@]12CC[C@@](Nc1cccc(Cl)c1)(C(=O)O)CC2 [Example 625, (1r,2′S,4S)-2′-{(2R)-3-[(1,3-benzothiazol-7-yl)oxy]-2-methylpropyl}-4-(3-chloroanilino)-2′,3′-dihydrospiro[cyclohexane-1,1′-indene]-4-carboxylic acid] | 6590 nM |  |  |  |
| CCC1CC(O)c2nccc(OC[C@H](C)C[C@H]3Cc4ccccc4[C@]34CC[C@@](Nc3cccc(Cl)c3)(C(=O)O)CC4)c21 (stereo partly drawn) [Example 624, (1r,2′S,4S)-4-(3-chloroanilino)-2′-{(2R)-3-[(5-ethyl-7-hydroxy-6,7-dihydro-5H-cyclopenta[b]pyridin-4-yl)oxy]-2-methylpropyl}-2′,3′-dihydrospiro[cyclohexane-1,1′-indene]-4-carboxylic acid] | 525 nM |  |  |  |
| CC(C)C(COc1ccnc2ccsc12)CC1Cc2ccccc2[C@]12CC[C@@](Nc1cccc(Cl)c1)(C(=O)O)CC2 (single isomer, unassigned) [Example 523, (1r,4r)-4-(3-chloroanilino)-2′-(3-methyl-2-{[(thieno[3,2-b]pyridin-7-yl)oxy]methyl}butyl)-2′,3′-dihydrospiro[cyclohexane-1,1′-indene]-4-carboxylic acid] |  |  |  | IC50 [1]: 16400 nM |
| O=C(O)[C@]1(Nc2cccc(Cl)c2)CC[C@@]2(CC1)c1ccccc1C[C@H]2CCCOc1cccc2[nH]ccc12 [Example 485, (1r,2′R,4R)-4-(3-chloroanilino)-2′-{3-[(1H-indol-4-yl)oxy]propyl}-2′,3′-dihydrospiro[cyclohexane-1,1′-indene]-4-carboxylic acid] |  |  | 45.5 nM |  |
| C[C@@H](COc1ccnc2c1[C@H](C)CCC2)C[C@H]1Cc2cc3c(cc2[C@]12CC[C@@](Nc1cccc(Cl)c1)(C(=O)Oc1ccc4c(c1)CCC4)CC2)OCO3 [Example 937, 2,3-dihydro-1H-inden-5-yl (1r,4S,6′S)-4-(3-chloroanilino)-6′-[(2R)-2-methyl-3-{[(5R)-5-methyl-5,6,7,8-tetrahydroquinolin-4-yl]oxy}propyl]-6′,7′-dihydro-2′H-spiro[cyclohexane-1,5′-indeno[5,6-d][1,3]dioxole]-4-carboxylate] |  |  | 28 nM |  |
| O=C(O)[C@]1(Nc2cccc(Cl)c2)CC[C@]2(CC1)C(CCc1ccccn1)=Cc1ccccc12 [Example 199, (1r,4r)-4-(3-chloroanilino)-2′-[2-(pyridin-2-yl)ethyl]spiro[cyclohexane-1,1′-indene]-4-carboxylic acid] |  |  |  | Ki ([3]; Ki determined from IC50): 1250 nM |
| O=C(O)[C@]1(Nc2cccc(Cl)c2)CC[C@@]2(CC1)c1ccccc1CC2CC(F)COc1ccnc2c1CCC2 (mixture of isomers) [Example 504, (1r,4r)-4-(3-chloroanilino)-2′-{3-[(6,7-dihydro-5H-cyclopenta[b]pyridin-4-yl)oxy]-2-fluoropropyl}-2′,3′-dihydrospiro[cyclohexane-1,1′-indene]-4-carboxylic acid] |  |  | 29.9 nM |  |
| Cc1cc(OCCC[C@@H]2Cc3ccccc3[C@]23CC[C@@](Nc2cccc(Cl)c2)(C(=O)O)CC3)c2cc[nH]c2c1 [Example 487, (1r,2′R,4R)-4-(3-chloroanilino)-2′-{3-[(6-methyl-1H-indol-4-yl)oxy]propyl}-2′,3′-dihydrospiro[cyclohexane-1,1′-indene]-4-carboxylic acid] |  |  | 72.9 nM |  |
| O=C(O)[C@]1(Nc2cccc(Cl)c2)CC[C@@]2(CC1)c1ccccc1CC2CC(CO)COc1ccnc2c1CCC2 (single isomer, unassigned) [Example 499, (1r,4r)-4-(3-chloroanilino)-2′-(2-{[(6,7-dihydro-5H-cyclopenta[b]pyridin-4-yl)oxy]methyl}-3-hydroxypropyl)-2′,3′-dihydrospiro[cyclohexane-1,1′-indene]-4-carboxylic acid] |  |  | 74.1 nM |  |
| O=C(O)[C@]1(Nc2cccc(Cl)c2)CC[C@@]2(CC1)c1ccccc1CC2CC(COc1ccnc2c1CCCC2)C(F)F (single isomer, unassigned) [Example 513, (1r,4r)-4-(3-chloroanilino)-2′-(3,3-difluoro-2-{[(5,6,7,8-tetrahydroquinolin-4-yl)oxy]methyl}propyl)-2′,3′-dihydrospiro[cyclohexane-1,1′-indene]-4-carboxylic acid] |  |  | 27.9 nM |  |
